Our source for the IC50 values is patent publication US20230159469A1, “NOVEL PHTHALAZINE DERIVATIVE HAVING ECTONUCLOEOTIDE PYROPHOSPHATASE/PHOSPHODIESTE RASE INHIBITORY ACTIVITY, AND USE THEREOF” (TXINNO BIOSCIENCE INC., priority 2020, published 2023).

The structures appear in SMILES notation. Structures can show the parent of a compound that is named as a salt.

For the experiment, the target named is T1, human recombinant ENPP1 (Homo sapiens, UniProt P22413).
T1 construct: purchased R & D systems
T1 sequence (P22413 1-925): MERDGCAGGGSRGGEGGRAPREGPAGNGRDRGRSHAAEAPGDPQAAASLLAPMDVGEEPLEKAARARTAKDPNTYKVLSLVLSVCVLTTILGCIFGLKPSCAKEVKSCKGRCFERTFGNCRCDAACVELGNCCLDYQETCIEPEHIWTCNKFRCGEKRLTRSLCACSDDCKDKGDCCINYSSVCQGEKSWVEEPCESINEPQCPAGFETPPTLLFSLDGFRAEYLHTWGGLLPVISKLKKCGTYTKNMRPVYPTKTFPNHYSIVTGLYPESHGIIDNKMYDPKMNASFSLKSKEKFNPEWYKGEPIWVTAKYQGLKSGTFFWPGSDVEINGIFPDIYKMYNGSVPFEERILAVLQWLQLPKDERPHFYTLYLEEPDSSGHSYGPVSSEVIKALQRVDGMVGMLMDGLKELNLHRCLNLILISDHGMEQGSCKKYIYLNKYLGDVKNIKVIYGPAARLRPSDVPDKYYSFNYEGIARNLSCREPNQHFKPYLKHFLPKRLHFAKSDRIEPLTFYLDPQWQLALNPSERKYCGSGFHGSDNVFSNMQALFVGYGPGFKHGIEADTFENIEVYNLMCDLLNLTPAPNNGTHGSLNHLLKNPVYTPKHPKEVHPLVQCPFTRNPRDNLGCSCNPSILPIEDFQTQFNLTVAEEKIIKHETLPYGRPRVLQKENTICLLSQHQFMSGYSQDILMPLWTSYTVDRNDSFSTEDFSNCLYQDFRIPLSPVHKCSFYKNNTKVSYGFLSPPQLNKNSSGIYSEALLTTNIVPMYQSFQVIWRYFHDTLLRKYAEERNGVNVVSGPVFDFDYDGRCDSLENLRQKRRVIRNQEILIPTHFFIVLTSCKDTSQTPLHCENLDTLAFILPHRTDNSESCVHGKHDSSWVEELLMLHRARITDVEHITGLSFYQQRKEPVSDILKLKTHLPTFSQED
The experiment in a line: ENPP1 enzyme assay with cGAMP substrate (AMP-Glo luminescence). Format: biochemical. The following applies: human recombinant ENPP1 3 ng/reaction, cGAMP 5 μM, 37° C. 90 minutes, read-out: Enzymatic activity (ENPP1 IC50). The procedure, abridged: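 Human ENPP1 hydrolysis of 5 μM cGAMP was run for 90 min at 37° C in 50 mM Tris pH 8.5, 250 mM NaCl, 0.5 mM CaCl2, 1 μM ZnCl2, 5% glycerol, 1% DMSO. AMP product was quantified by AMP-Glo luminescence; IC50 came from 3-parameter fits of % residual activity, averaged over at least two runs.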

For the compound `Cc1ccc(S(=O)(=O)NCc2ccc(-c3n[nH]c(=O)c4ccccc34)cc2)cc1` [Example 197, 4-methyl-N-(4-(4-oxo-3,4-dihydrophthalazin-1-yl)benzyl)benzenesulfonamide], the IC50 was > 10 µM. Take `O=c1[nH]nc(-c2ccc(CNS(=O)(=O)c3cccs3)cc2)c2ccccc12` [Example 198, N-(4-(4-oxo-3,4-dihydrophthalazin-1-yl)benzyl)thiophene-2-sulfonamide]: the half-maximal inhibitory concentration (IC50) is > 10 µM. For `CNS(=O)(=O)Cc1ccc(-c2nn(C)c(=O)c3ccccc23)cc1` [Example 200, N methyl-1-(4-(3-methyl-4-oxo-3,4-dihydrophthalazin-1-yl)phenyl)methanesulfonamide], the IC50 is > 10 µM. Turning to `Cn1nc(-c2ccc(CS(=O)(=O)N3CCOCC3)cc2)c2ccccc2c1=O` [Example 201, 2-methyl-4-(4-((morpholinosulfonyl)methyl)phenyl)phthalazin-1 (2H)-one], the IC50 was > 10 µM. On to `Cn1nc(-c2ccc(CCS(N)(=O)=O)cc2)c2ccccc2c1=O` [Example 202, 2-(4-(3-methyl-4-oxo-3,4-dihydrophthalazin-1-yl)phenyl)ethane-1-sulfonamide], for which the IC50 is 1 to 10 µM. As to `COc1cc2c(-c3ccc(CN)c(C(F)(F)F)c3)n[nH]c(=O)c2cc1OC` [Example 203, 4-(4-(aminomethyl)-3-(trifluoromethyl)phenyl-6,7-dimethoxyphthalazin-1(2.8)-one hydrochloride], the half-inhibitory concentration (IC50) was > 10 µM.
